According to patent US9056111B1, “Selective efflux inhibitors and related pharmaceutical compositions and methods of treatment” (STC.UNM, priority 2011, dated 2015):
Values joined by “and” are separate entries in the source; they are usually repeats but may differ in a detail not shown here. Identical values can stand only once. “Also recorded” adds a separate entry of the source.

Legend:
[1] = test system: ABCG2 over-expressing Igrov1/T8 tumors; assay: ABCG2 resistant Igrov1/T8 tumor xenograft, combination with topotecan; format: in vivo, CB-17 SCID mice; details: for tumor size, combination of TPT and inhibitor: 150 nM TPT + 100 nM SID 88095709 (1) or 500 nM SID 85752814 (7), up to 96 hr
Method: Specific-pathogen-free adult CB-17 female SCID mice (5-6 weeks of age) weighing 20-25 g, are purchased. Briefly, ABCG2 over-expressing Igrov1/T8 cells are injected (5×10^6 cells/mouse). Prior to injection, Igrov1/T8 cells are maintained in topotecan in order to assure continuous expression of ABCG2. Tumors are allowed to grow for 3-4 weeks or until tumor volumes are greater than ˜100 cubic millimeters, at which time they are stratified into treatment groups. Treatment is administered and we observe the size of the tumor and weight of the mouse over a 7 day period. At the end of 7 days, we: 1) sacrifice the animal; 2) measure and weigh the tumor (if present); 3) analyze the histology of the tumor as well as other organs for evidence of toxicity; and 4) measure the expression of ABCG2 receptors on the tumor to determine if in vivo growth has altered ABCG2 expression. In our initial studies, we have generally observed high survival at 4 weeks (>90%) which escalates rapidly with near 100% mortality by 6 weeks. This approach is well described elsewhere.^9
Tumor-bearing mice were injected with either 150 nM TPT, 100 nM SID 88095709 (probe resupply), or 500 nM SID 85752814 (original SMR hit).
Igrov1/T8 cells were injected into the hind limbs of CB-17 SCID mice at a concentration of 1×10^7 cells in 200 μL, n of 3 per condition. The tumor was grown until the volume was in the range of 75 mm^3 to 250 mm^3. […] Injections were repeated daily and the size of the tumor was determined as a fraction of the starting size. After four days the mice were sacrificed and any recurring tumor was verified by light microscopy examination of histological sections. Mice were studied and maintained in accordance with guidelines of our Institutional Animal Research Committee at UNM HSC.

ABCB1 = ABCB1 (Homo sapiens, UniProt P08183); assay: JC-1 efflux inhibition dose response, flow cytometry, Jurkat-DNR cells
Sequence of ABCB1 (P08183 whole entry): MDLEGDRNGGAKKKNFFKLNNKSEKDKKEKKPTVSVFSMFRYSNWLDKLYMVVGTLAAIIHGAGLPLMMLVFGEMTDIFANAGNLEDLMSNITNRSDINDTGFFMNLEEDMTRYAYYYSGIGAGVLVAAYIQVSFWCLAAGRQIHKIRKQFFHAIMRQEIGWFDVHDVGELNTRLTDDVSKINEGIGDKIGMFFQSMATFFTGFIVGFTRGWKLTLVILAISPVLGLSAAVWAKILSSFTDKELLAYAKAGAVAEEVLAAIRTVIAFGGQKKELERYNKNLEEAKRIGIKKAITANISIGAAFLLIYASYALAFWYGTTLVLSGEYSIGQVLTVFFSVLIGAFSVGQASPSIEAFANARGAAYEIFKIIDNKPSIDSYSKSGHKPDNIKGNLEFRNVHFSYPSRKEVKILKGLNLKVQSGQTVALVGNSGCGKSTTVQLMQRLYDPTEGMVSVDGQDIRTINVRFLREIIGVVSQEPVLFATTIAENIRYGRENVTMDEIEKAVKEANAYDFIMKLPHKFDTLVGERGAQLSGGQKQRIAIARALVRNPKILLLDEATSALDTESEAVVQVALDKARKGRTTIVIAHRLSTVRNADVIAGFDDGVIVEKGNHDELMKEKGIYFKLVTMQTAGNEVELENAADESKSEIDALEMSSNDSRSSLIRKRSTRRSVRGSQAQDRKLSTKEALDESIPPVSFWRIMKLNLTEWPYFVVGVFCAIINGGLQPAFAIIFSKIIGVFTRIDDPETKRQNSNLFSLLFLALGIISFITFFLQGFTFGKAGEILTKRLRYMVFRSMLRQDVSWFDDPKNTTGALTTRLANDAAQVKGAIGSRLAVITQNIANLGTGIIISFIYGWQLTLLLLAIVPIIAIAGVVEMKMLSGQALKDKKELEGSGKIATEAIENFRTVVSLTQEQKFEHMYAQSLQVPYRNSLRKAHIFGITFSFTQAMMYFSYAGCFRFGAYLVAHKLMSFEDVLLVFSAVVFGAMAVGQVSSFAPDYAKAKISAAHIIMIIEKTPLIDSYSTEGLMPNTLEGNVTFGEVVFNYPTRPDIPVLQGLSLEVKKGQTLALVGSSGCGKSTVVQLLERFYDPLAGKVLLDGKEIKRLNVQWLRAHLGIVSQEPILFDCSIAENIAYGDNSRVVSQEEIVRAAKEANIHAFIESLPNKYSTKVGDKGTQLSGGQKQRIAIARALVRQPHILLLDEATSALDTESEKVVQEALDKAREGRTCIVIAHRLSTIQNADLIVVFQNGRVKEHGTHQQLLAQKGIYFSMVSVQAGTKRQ
Summary of the method: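 Jurkat-DNR cells pre-stained with 1 μM JC-1 were incubated with compound (final 50 μM to 69 nM, […]) at 1×10^6 cells/mL, rotated 30 min at 25° C. Retained JC-1 read by flow cytometry (488 nm excitation, 530/40 nm emission). Curves fitted to a four-parameter logistic.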

50 kinases = assay: Kinase profiling (KinaseSeeker, split-luciferase); format: biochemical; details: 10 μM
Method: Since ABC transporters are ATP dependent efflux pumps and several kinase targets have been implicated in the patent literature with structurally similar scaffolds, SID 88095709 was profiled against 50 kinasesat a single concentration of 10 μM to assess promiscuity of the chemotype.^66 SID 88095709 was dissolved in DMSO and tested at a final concentration of 10 μM. Prior to initiating a profiling campaign, the compound was evaluated for false positive against split-luciferase. Profiling was done in duplicate for SID 88095709 against each kinase. The Percent Inhibition and Percent Activity Remaining arecalculated using the following equation: % Inhibition=ALUControl−ALUSample×100 ALUControl % Activity Remaining=100−% Inhibition The team has also submitted SID 88095709 and the analog SID 97301789 to the NIH National Cancer Institute to elucidate the effect of SID 88095709 on the cancer cell line panel. Discussion

[2] = test system: ABCG2 over-expressing Ig-MXP3 cells; assay: Chemoreversal assay: potentiation of mitoxantrone (MTX) killing; format: cell-based
Method: Cells (ABCB1, Jurkat-DNR or ABCG2 Ig-MXP3) are incubated with the test compound (3 order of magnitude concentration range) over a 3-day and 7-day period in the presence of the inhibitor and chemotherapeutic (ABCB1, DNR or ABCG2 MTX), such that a cell concentration of at least 1×10^5 cells/mL is maintained. Cell viability is determined by trypan blue staining and enumeration under light microscopy. […] A chemoreversal index (Chemoreversal 50, CR50) is determined from the viability assessment. Using a similar approach, a direct cytotoxicity index (Toxic Dose 50, TD50) is determined by assessment of cell death of cells grown in media alone.
Cells (ABCB1, Jurkat-DNR or ABCG2 Ig-MXP3) were incubated with the test compound in a 3 order of magnitude concentration range over three and seven day periods in the presence of the inhibitor and chemotherapeutic (ABCB1, 100 nM DNR or ABCG2 30 nM MTX), such that a cell concentration of at least 1×10^5 cells mL^−1 was maintained. Cell viability was determined by trypan blue staining and enumeration under light microscopy. […] A chemoreversal index (Chemoreversal 50, CR50) was determined from the viability assessment. Using a similar approach, a direct cytotoxicity index (Toxic Dose 50, TD50) was determined by assessment of cell death of cells grown in media alone.

[3] = Aqueous stability in PBS at room temperature; format: physicochemical
Method: Aqueous stability was measured at room temperature (23° C.) in PBS (no antioxidants or other protectants and DMSO concentration below 0.1%). The stability of SID 88095709, determined as the percent of compound remaining after 48 hours, was 10%.^64Stability data are depicted as a graph showing the loss of compound with time over a 48 hour period with a minimum of 6 time points and provide the percent remaining compound at end of the 48 hours (FIG. 3, closed circles).
The stability data under these conditions overlain in the FIG. 3 and is also depicted as a graph showing the loss of compound with time over a 48 hour period with a minimum of 6 time points and provide the percent remaining compound at end of the 48 hours (FIG. 3, closed triangles). The addition of acetonitrile appears to have solubilized the compound and provided a more accurate reading of the stability, which is now 100% remaining after 48 hours.

O=C(c1ccoc1)N1CCN(c2cc(-c3ccco3)nc3cc(-c4ccccc4)nn23)CC1 [Compound 1, (4-(5-(furan-2-yl)-2-phenylpyrazolo[1,5-a]pyrimidin-7-yl)piperazin-1-yl)(furan-3-yl)methanone]
tumor size, combination of TPT and inhibitor [1]: dramatically reduced tumor size; also recorded: Significant tumor reduction | tumor size, combination of TPT and inhibitor ([1]; listed as SID 88095709): dramatically reduced tumor size | tumor size, single agent ([1]; 150 nM TPT, 100 nM SID 88095709 or 500 nM SID 85752814 alone): remained the same or increased | tumor size, inhibitor alone ([1]; inhibitor alone (100 nM or 500 nM as printed), Example 3): No reduction in size | EC50 (ABCB1): 4.65 µM | IC50 (ABCB1; IC50 ABCB1 (efflux inhibition of JC-1 substrate), Jurkat-DNR cells over-expressing ABCB1, averages of two to four replicates): 4.7 µM and 4.65 µM | kinase inhibition profile (50 kinases): appears to not be a kinase inhibitor | selectivity in chemoreversal (cell killing assay) ([2]; ABCG2 vs ABCB1): 1.8 fold | EC50 ([2]; Ig-MXP3 cells, constant 30 nM MTX, varied inhibitor dose, read-out: CR50 ABCG2): 0.31 µM | Aqueous stability, percent of compound remaining after 48 hours ([3]; PBS alone, 23° C., DMSO below 0.1%): 10% | Aqueous stability, percent remaining after 48 hours ([3]; PBS with acetonitrile (50% v/v final)): 100%
